Test results published in patent publication US10238670B2, “9-aminomethyl minocycline compounds and methods of use thereof in urinary tract infection (UTI) treatment” (Paratek Pharmaceuticals, Inc., priority 2016, dated 2019).

Test: Phase 1b study in female adults with cystitis, urine PK
Format: in vivo, human
Conditions: urine
Experimental: Urine was collected, the volume recorded, and analyzed for Compound 1 concentration at the following times: • Day 1 to 2: pooled total urine 0 to 4, 4 to 8, 8 to 12, and 12-24 hours after the t=0 h dose; Collection of the 12 to 24 h sample should be completed prior to the t=24 h dose on Day 2; • Day 5 to 6: pooled total urine 0 to 4, 4 to 8, 8 to 12, and 12-24 hours after the t=96 h dose;
Urine was pooled during the intervals above. At the end of each interval, the time and total volume were recorded.
Compound 1 urine concentration data was used to determine the amount excreted in a dosing interval, the urinary excretion rate, and, in conjunction with the plasma concentration data, to estimate the renal clearance (CLr) of Compound 1.
Urine was collected and the volume recorded at the following times: • Day 1 to 2: pooled total urine 0 to 4, 4 to 8, 8 to 12, and 12-24 hours after the t=0 h dose; • Day 5 to 6: pooled total urine 0 to 4, 4 to 8, 8 to 12, and 12-24 hours after the t=96 h dose;
At the end of each collection time period the pooled urine was frozen at −20° C. or colder and the total volume of urine collected for the time period was recorded. The samples were kept frozen at −20° C. or colder pending shipment to the bioanalytical laboratory.
The urine sample volume, its Compound 1 concentration, the amount of Compound 1 excreted in the urine (product of volume and concentration) over a dosing interval, the urinary excretion rates and renal clearance (CLr) of Compound 1 following the initial Day 1 and final Day 5 doses were summarized by the treatment groups.

SMILES: CN(C)c1cc(CNCC(C)(C)C)c(O)c2c1C[C@H]1C[C@H]3[C@H](N(C)C)C(O)=C(C(N)=O)C(=O)[C@@]3(O)C(O)=C1C2=O [Compound 1, 9-[(2,2-dimethyl-propylamino)-methyl]-minocycline]
- Ae 12-24 hrs, Mean (Day 1, IV_PO300): 14.00 mg
- Ae 12-24 hrs, Median (Day 1, IV_PO300): 12.32 mg
- Fe 0-24 hrs, Geo. Mean (Day 1, IV_PO300): 18.49%
- Fe 0-24 hrs, Mean (Day 1, IV_PO300): 20.35%
- Fe 0-24 hrs, Median (Day 1, IV_PO300): 20.70%
- Ae 0-4 hrs, Geo. Mean (Day 1, PO300): 5.90 mg
- Ae 0-4 hrs, Mean (Day 1, PO300): 6.41 mg
- Ae 0-4 hrs, Median (Day 1, PO300): 6.58 mg
- Ae 0-24 hrs, Geo. Mean (Day 1, PO300): 36.94 mg
- Ae 0-24 hrs, Median (Day 1, PO300): 39.07 mg
- Ae 4-8 hrs, Geo. Mean (Day 1, PO300): 6.42 mg
- Ae 4-8 hrs, Mean (Day 1, PO300): 7.60 mg
- Ae 4-8 hrs, Median (Day 1, PO300): 6.28 mg
- Ae 8-12 hrs, Geo. Mean (Day 1, PO300): 7.22 mg
- Ae 8-12 hrs, Mean (Day 1, PO300): 9.17 mg
- Ae 8-12 hrs, Median (Day 1, PO300): 6.86 mg
- Ae 12-24 hrs, Geo. Mean (Day 1, PO300): 14.19 mg
- Ae 12-24 hrs, Mean (Day 1, PO300): 16.82 mg
- Ae 12-24 hrs, Median (Day 1, PO300): 16.30 mg
- Fe 0-24 hrs, Geo. Mean (Day 1, PO300): 6.16%
- Fe 0-24 hrs, Mean (Day 1, PO300): 6.54%
- Fe 0-24 hrs, Median (Day 1, PO300): 6.51%
- Ae 0-4 hrs, Geo. Mean (Day 1, PO450): 3.96 mg
- Ae 0-4 hrs, Mean (Day 1, PO450): 7.27 mg
- Ae 0-4 hrs, Median (Day 1, PO450): 5.05 mg
- Ae 0-24 hrs, Geo. Mean (Day 1, PO450): 34.07 mg
- Ae 0-24 hrs, Median (Day 1, PO450): 37.30 mg
- Ae 4-8 hrs, Geo. Mean (Day 1, PO450): 6.00 mg
- Ae 4-8 hrs, Mean (Day 1, PO450): 7.11 mg
- Ae 4-8 hrs, Median (Day 1, PO450): 6.16 mg
- Ae 8-12 hrs, Geo. Mean (Day 1, PO450): 4.75 mg
- Ae 8-12 hrs, Mean (Day 1, PO450): 5.36 mg
- Ae 8-12 hrs, Median (Day 1, PO450): 5.27 mg
- Ae 12-24 hrs, Geo. Mean (Day 1, PO450): 14.57 mg
- Ae 12-24 hrs, Mean (Day 1, PO450): 16.92 mg
- Ae 12-24 hrs, Median (Day 1, PO450): 15.98 mg
- Fe 0-24 hrs, Geo. Mean (Day 1, PO450): 3.79%
- Fe 0-24 hrs, Mean (Day 1, PO450): 3.99%
- Fe 0-24 hrs, Median (Day 1, PO450): 4.14%
- Ae 0-4 hrs, Geo. Mean (Day 5, IV_PO300): 3.89 mg
- Ae 0-4 hrs, Mean (Day 5, IV_PO300): 7.74 mg
- Ae 0-4 hrs, Median (Day 5, IV_PO300): 4.99 mg
- Ae 0-24 hrs, Geo. Mean (Day 5, IV_PO300): 21.72 mg
- Ae 0-24 hrs, Median (Day 5, IV_PO300): 31.29 mg
- Ae 4-8 hrs, Geo. Mean (Day 5, IV_PO300): 5.22 mg
- Ae 4-8 hrs, Mean (Day 5, IV_PO300): 8.38 mg
- Ae 4-8 hrs, Median (Day 5, IV_PO300): 7.13 mg
- Ae 8-12 hrs, Geo. Mean (Day 5, IV_PO300): 3.94 mg
- Ae 8-12 hrs, Mean (Day 5, IV_PO300): 6.28 mg
- Ae 8-12 hrs, Median (Day 5, IV_PO300): 6.47 mg
- Ae 12-24 hrs, Geo. Mean (Day 5, IV_PO300): 7.31 mg
- Ae 12-24 hrs, Mean (Day 5, IV_PO300): 10.71 mg
- Ae 12-24 hrs, Median (Day 5, IV_PO300): 11.25 mg
- Fe 0-24 hrs, Geo. Mean (Day 5, IV_PO300): 7.24%
- Fe 0-24 hrs, Mean (Day 5, IV_PO300): 10.76%
- Fe 0-24 hrs, Median (Day 5, IV_PO300): 10.43%
- Ae 0-4 hrs, Geo. Mean (Day 5, PO300): 7.20 mg
- Ae 0-4 hrs, Mean (Day 5, PO300): 10.02 mg
- Ae 0-4 hrs, Median (Day 5, PO300): 9.35 mg
- Ae 0-24 hrs, Geo. Mean (Day 5, PO300): 31.46 mg
- Ae 0-24 hrs, Median (Day 5, PO300): 34.96 mg
- Ae 4-8 hrs, Geo. Mean (Day 5, PO300): 9.17 mg
- Ae 4-8 hrs, Mean (Day 5, PO300): 10.54 mg
- Ae 4-8 hrs, Median (Day 5, PO300): 8.05 mg
- Ae 8-12 hrs, Geo. Mean (Day 5, PO300): 5.02 mg
- Ae 8-12 hrs, Mean (Day 5, PO300): 6.74 mg
- Ae 8-12 hrs, Median (Day 5, PO300): 7.29 mg
- Ae 12-24 hrs, Geo. Mean (Day 5, PO300): 10.71 mg
- Ae 12-24 hrs, Mean (Day 5, PO300): 11.95 mg
- Ae 12-24 hrs, Median (Day 5, PO300): 11.38 mg
- Fe 0-24 hrs, Geo. Mean (Day 5, PO300): 10.49%
- Fe 0-24 hrs, Mean (Day 5, PO300): 12.74%
- Fe 0-24 hrs, Median (Day 5, PO300): 11.65%
- Ae 0-4 hrs, Geo. Mean (Day 5, PO450): 9.50 mg
- Ae 0-4 hrs, Mean (Day 5, PO450): 12.07 mg
- Ae 0-4 hrs, Median (Day 5, PO450): 11.76 mg
- Ae 0-24 hrs, Geo. Mean (Day 5, PO450): 43.60 mg
- Ae 0-24 hrs, Median (Day 5, PO450): 50.26 mg
- Ae 4-8 hrs, Geo. Mean (Day 5, PO450): 11.02 mg
- Ae 4-8 hrs, Mean (Day 5, PO450): 19.74 mg
- Ae 4-8 hrs, Median (Day 5, PO450): 10.30 mg
- Ae 8-12 hrs, Geo. Mean (Day 5, PO450): 6.01 mg
- Ae 8-12 hrs, Mean (Day 5, PO450): 7.54 mg
- Ae 8-12 hrs, Median (Day 5, PO450): 5.62 mg
- Ae 12-24 hrs, Geo. Mean (Day 5, PO450): 15.26 mg
- Ae 12-24 hrs, Mean (Day 5, PO450): 18.59 mg
- Ae 12-24 hrs, Median (Day 5, PO450): 20.23 mg
- Fe 0-24 hrs, Geo. Mean (Day 5, PO450): 9.69%
- Fe 0-24 hrs, Mean (Day 5, PO450): 12.19%
- Fe 0-24 hrs, Median (Day 5, PO450): 11.17%
